Source: patent publication US20040023314A1, “Mutant fibronectin and tumor metastasis” (Baylor College of Medicine, priority 2002, published 2004)

System: 1143 mel tumor cells
Test: Migration assay (matrigel)
Type: cell-based, human
Settings: 1143 mel cells stably expressing the construct, 48 h
Method: 2.5×10^4 1143 mel tumor cells and transfected tumor cells were seeded into the upper chamber with 0.75 ml of RPMI-1640 serum-free medium in BIOCOAT […] Cells (Becton Dickinson, San Jose, Calif.). The bottom chamber contained 0.75 ml of RPMI-1640 serum-free medium (control medium) or 0.75 ml of RPMI-1640/10% FCS (complete medium). After incubation at 37° C. and 5% CO2 for 48 h, Cells in the lower chambers were fixed in 4% formaldehyde in PBS at room temperature for 20 min, stained with crystal violet, and examined and counted from four different fields under a compound microscope.
The migratory ability of these cell lines expressing wild type or mutant FN was further evaluated. […] To rule out clonal variation, similar experiments were repeated with four sets of independent tumor cell clones expressing either wild-type, mutant FN or empty vector. […] The P-value for significant difference is 0.0007 among the two comparison groups of cell clones expressing mutant FN and other cell clones expressing either wild-type FN, empty vector. There were no statistically significant differences among groups of parental 1143 mel and its derivative clones expressing wild-type or empty vector.

Substance | migration from chamber with control medium to chamber with complete medium
mutant FN: mutated fibronectin with Glu to Lys substitution at position 2053 | enhanced migration ability
wild-type FN: wild-type fibronectin | little or no migration
